The source made the active and inactive calls. The rule behind the calls is not given here.
Legend:
[1] = test system: Radical scavenging activity; test: Antioxidant activity of the compound assessed as DPPH radical scavenging at 10 uM after 30 secs by spectrophotometry; assay type: functional
[2] = Antioxidant activity of the compound assessed as DHR radical scavenging activity at 10 uM by fluorescence assay; assay type: functional
[3] = test system: H9c2; test: Prevention of apoptosis in rat H9c2 cells assessed as protection against oxidative stress-induced cytotoxicity at 100 nM […] by Alamar blue assay; assay type: functional
[4] = Antioxidant activity assessed as scavenging of morpholino sydononimine based nitric oxide release by chemiluminescence assay; assay type: functional
[5] = test system: H9c2; test: Prevention of apoptosis in rat H9c2 cells assessed as reduction in fall of mitochondrial membrane potential at 100 nM after 1 hr; assay type: functional; design: scale not given: the % may be the effect or the level left
[6] = Antioxidant activity assessed as scavenging of glucose oxidase-generated H2O2 and hydroxyl radicals by chemiluminescence assay; assay type: functional
[7] = biological target: Butyrylcholinesterase (Equus caballus, UniProt Q9N1N9); test: Inhibition of equine BuChE after 120 mins by Ellman's method
[8] = Selectivity ratio of IC50 for equine BuChE to IC50 for bovine AChE
[9] = biological target: T1, Acetylcholinesterase (Bos taurus, UniProt P23795); test: Inhibition of bovine AChE after 120 mins by Ellman's method
T1 sequence (P23795 whole entry): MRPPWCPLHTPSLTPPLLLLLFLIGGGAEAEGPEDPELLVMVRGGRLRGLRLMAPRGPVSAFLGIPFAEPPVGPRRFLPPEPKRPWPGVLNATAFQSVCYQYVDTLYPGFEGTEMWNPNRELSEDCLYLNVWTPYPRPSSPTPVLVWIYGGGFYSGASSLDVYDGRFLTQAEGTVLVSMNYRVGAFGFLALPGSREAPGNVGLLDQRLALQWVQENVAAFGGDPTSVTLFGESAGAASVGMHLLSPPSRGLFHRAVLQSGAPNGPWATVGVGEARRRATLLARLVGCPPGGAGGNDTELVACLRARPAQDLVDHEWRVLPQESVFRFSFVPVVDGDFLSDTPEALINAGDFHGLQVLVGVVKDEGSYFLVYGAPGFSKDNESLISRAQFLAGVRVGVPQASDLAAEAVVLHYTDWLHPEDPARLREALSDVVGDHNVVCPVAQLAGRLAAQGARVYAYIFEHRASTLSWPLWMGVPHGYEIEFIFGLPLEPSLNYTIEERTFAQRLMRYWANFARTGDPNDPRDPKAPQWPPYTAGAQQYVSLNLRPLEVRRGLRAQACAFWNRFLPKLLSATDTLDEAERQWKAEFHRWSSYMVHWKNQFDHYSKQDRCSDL

[10] = test system: Liver microsomes; test: Metabolic stability in human liver microsomes; assay type: ADME, Microsome
[11] = Chemical stability in MeCN/water solution at 25 degC; assay type: physicochemical; details: buffer
[12] = Stability in human plasma assessed as compound hydrolysis at 37 degC within 90 mins; assay type: ADME, cell-free; details: read-out: Drug degradation
[13] = test system: Liver; test: Metabolic stability in mouse liver microsomes; assay type: ADME, Microsome
[14] = Cytotoxicity against rat H9c2 cells assessed as cell viability in absence of H2O2; assay type: cell-based; design: concentration or dose not given beside the values; details: read-out: Activity
[15] = species on record: Gallus gallus; test: Prevention of apoptosis in chick primary telencephalon neurons assessed as protection against serum deprivation-induced cytotoxicity at 1 to 10 uM by MTT assay; assay type: functional
[16] = species on record: Gallus gallus; test: Prevention of apoptosis in chick primary telencephalon neurons assessed as protection against serum deprivation-induced oxidative stress at 10 nM measured on day 8 by MTT assay; assay type: functional

Sequence of Butyrylcholinesterase (Q9N1N9 whole entry): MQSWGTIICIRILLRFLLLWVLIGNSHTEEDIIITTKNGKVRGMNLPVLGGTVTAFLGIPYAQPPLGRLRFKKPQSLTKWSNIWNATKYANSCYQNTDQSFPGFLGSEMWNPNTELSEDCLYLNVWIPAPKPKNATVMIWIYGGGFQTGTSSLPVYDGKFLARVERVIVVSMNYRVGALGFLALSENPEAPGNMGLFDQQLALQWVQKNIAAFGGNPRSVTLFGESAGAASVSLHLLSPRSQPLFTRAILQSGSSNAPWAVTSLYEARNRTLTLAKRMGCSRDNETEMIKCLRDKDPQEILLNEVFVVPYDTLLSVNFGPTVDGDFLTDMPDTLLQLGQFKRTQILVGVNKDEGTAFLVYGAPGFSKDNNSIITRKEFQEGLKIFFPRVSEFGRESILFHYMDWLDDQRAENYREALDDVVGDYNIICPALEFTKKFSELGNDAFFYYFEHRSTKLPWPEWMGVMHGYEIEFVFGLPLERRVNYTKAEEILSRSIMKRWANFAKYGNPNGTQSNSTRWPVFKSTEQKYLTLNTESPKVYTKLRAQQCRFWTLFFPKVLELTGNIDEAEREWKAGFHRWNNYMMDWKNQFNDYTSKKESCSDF

| SMILES | Activity [3] | IC50 [6] [µM] | IC50 [7] [µM] | Ratio IC50 [8] | IC50 [9] [µM] | viability [14] [%] | further results |
| --- | --- | --- | --- | --- | --- | --- | --- |
| O=C(O)c1cc(O)c(O)c(O)c1 |  |  |  |  |  |  | Activity [1]: 31.4% |
| COC(=O)CCC1CNc2cc(O)ccc21.Cl (stereo unspecified) | 50% | 1.34 |  |  |  |  | Activity [2]: 52.1%; IC50 [4]: 1.38 µM; Activity [5]: 87%; Activity [1]: 28.2% |
| CCCCN(C)C(=O)Oc1ccc2c(c1)N(C)CC2CCC(=O)OC (stereo unspecified) |  | 6.27 | 66.8 | 0.55 | 122 |  |  |
| CCN(C)C(=O)Oc1cccc2c1C(CCC(=O)OC)CN2.CS(=O)(=O)O (stereo unspecified) |  |  |  |  |  |  | Stability [10]: Unstable; Stability [11]: 9 days; metabolised at […] [12]: 40%; Stability [13]: Unstable |
| CCN(C)C(=O)Oc1ccc2c(c1)NCC2CCC(=O)O.Cl (stereo unspecified) | 56.1% | 1.14 | 10 | 0.06 | 175 | 102 |  |
| CCCCN(C)C(=O)Oc1cccc2c1C(CCC(=O)OC)CN2C.Cl (stereo unspecified) | 31.5% | 6.84 | 197 | 2.89 |  | 93.9 |  |
| COC(=O)CCC1CN(C)c2cccc(OC(=O)N(C)c3ccc(OC)cc3)c21 (stereo unspecified) | inactive | 15.3 | > 600 | > 2.4 | 246 | 107 |  |
| CCN(C)C(=O)Oc1cccc2c1c(CCC(=O)OC)cn2C |  |  |  |  | 180 |  |  |
| Cl.Oc1cccc2c1CCN2 | 38% | 1.15 |  |  |  |  | Activity [15]: Active; Activity [16]: Active |
| CC(=O)N[C@@H](CS)C(=O)O [ACETYLCYSTEINE] | 25.2% |  |  |  |  |  | Activity [5]: 20% |
| CCN(C)C(=O)Oc1ccc2c(c1)NCC2CCC(=O)OC (stereo unspecified) |  |  |  | 0.07 |  |  | Activity [1]: 31.7% |
| CCN(C)C(=O)Oc1cccc2c1C(CCC(=O)O)CN2 (stereo unspecified) | inactive | 1.59 | 0.3 | 0.016 | 19 | 93.4 |  |
| COc1ccc(N(C)C(=O)Oc2cccc3c2C(CCC(=O)O)CN3)cc1 (stereo unspecified) | inactive | 4.33 | 417 | 11 | 37.8 | 95.5 |  |
| CCN(C)C(=O)Oc1cccc2c1C(CCN)CN2 (stereo unspecified) |  | 0.07 | 0.2 | 0.5 |  |  | IC50 [4]: 2.13 µM; Activity [1]: 36.3% |
| CCN(C)C(=O)Oc1cccc([C@H](C)N(C)C)c1 [RIVASTIGMINE] |  |  |  |  | 0.62 |  |  |
| CCN(C)C(=O)Oc1ccc2c(c1)N(CCC(=O)OC)CC2 |  | 0.22 | 6.8 |  |  |  | IC50 [4]: 2.18 µM |
| CN(C)C(=O)Oc1cccc2c1CCN2.Cl | 46.8% | 0.77 | 1.3 | 1.08 | 1.2 |  |  |
| CCN(C)C(=O)Oc1cccc2c1C(CCC(=O)OC)CN2 (stereo unspecified) |  |  |  | 0.04 |  |  | Activity [15]: Active; Activity [16]: Active; Activity [1]: 24.8% |
| CN1CC(CCC(=O)O)c2ccc(O)cc21 (stereo unspecified) |  | 0.84 |  |  |  |  | Activity [2]: 66.3%; IC50 [4]: 3.25 µM |
| CCN(C)C(=O)Oc1cccc2c1C(CCC(=O)OC)CN2.Cl (stereo unspecified) | 73% | 1.46 | 0.3 |  | 7.4 | 99.9 | IC50 [4]: 4.55 µM |
| COC(=O)CCC1CNc2cc(OC(=O)N(C)c3ccc(OC)cc3)ccc21.Cl (stereo unspecified) | 43.8% | 3.41 | 54 | 1.4 |  |  |  |
| C#CCN[C@@H]1CCc2ccc(OC(=O)N(C)CC)cc21 [LADOSTIGIL] | 58.5% |  | 0.48 | 0.06 | 30.3 |  | Activity [5]: 32% |
| CCCCN(C)C(=O)Oc1ccc2c(c1)NCC2CCC(=O)OC.Cl (stereo unspecified) | 40.1% | 24.1 | 404 | 6.5 | 62.3 | 87.8 | Activity [5]: 54% |
